{"source": "patent US20060180677A1", "about": "“Agricultural compositions which enhance performance of pesticides applied through drift reducing nozzles” (priority 2005, published 2006)", "key": {"[1]": {"test_system": "Velvetleaf", "experiment": "Velvetleaf control after glyphosate spray, by nozzle type and adjuvant", "format": "in vivo", "settings": "28 days after treatment with glyphosate (0.375 lb ae/ac)", "description": "(§1) The numbers in this table are percent control or percent kill of the weed."}, "[2]": {"test_system": "Hemp sesbania", "experiment": "Hemp sesbania control after glyphosate spray, by nozzle type and adjuvant", "format": "in vivo", "settings": "28 days after treatment with glyphosate (0.375 lb ae/ac)", "description": "as §1"}}}
{"compound": "O=C(O)CNCP(=O)(O)O", "note": "[glyphosate]", "values": [{"measurement": "Velvetleaf control, InJet 110015 Nozzle", "setting": "[1]; Table 1, InJet 110015 nozzle", "result": 85, "unit": "%"}, {"measurement": "Velvetleaf control, XR110015 Nozzle", "setting": "[1]; Table 1", "result": 83, "unit": "%"}, {"measurement": "Velvetleaf control, DR 110015 Nozzle", "setting": "[1]; Table 5, DR 110015 nozzle", "result": 90, "unit": "%"}, {"measurement": "Velvetleaf control, XR110015 Nozzle", "setting": "[1]; Table 5", "result": 87, "unit": "%"}, {"measurement": "Hemp sesbania control, InJet 110015 Nozzle", "setting": "[2]; Table 2, InJet 110015 nozzle", "result": 20, "unit": "%"}, {"measurement": "Hemp sesbania control, XR110015 Nozzle", "setting": "[2]; Table 2", "result": 41, "unit": "%"}, {"measurement": "Hemp sesbania control, DR 110015 Nozzle", "setting": "[2]; Table 6, DR 110015 nozzle", "result": 50, "unit": "%"}, {"measurement": "Hemp sesbania control, XR110015 Nozzle", "setting": "[2]; Table 6", "result": 67, "unit": "%"}]}
